From publication PMC8682738, “Constrained peptides mimic a viral suppressor of RNA silencing” (Nucleic Acids Research, 2021)
Positions of bridges follow the written chain, without caps; N, C: chain ends. Non-standard residues stand in square brackets, D forms with d. Residues, ends and D or L forms follow the SMILES beside them. *: point of attachment. FITC = O=C1OC2(c3ccc(O)cc3Oc3cc(O)ccc32)c2ccc(NC(=S)*)cc21; R8 = C=CCCCCCC[C@@](C)(N)C(=O)O; S5 = C=CCCC[C@](C)(N)C(=O)O; AEEA = NCCOCCOCC(=O)O

Legend:
[1] = tested on: Dicer processing of pre-miR-21; experiment: Dicer cleavage assay of pre-miR-21; assay type: biochemical; conditions: pre-miR-21 40 nM; for inhibition of pre-miR-21 maturation by Dicer (in words): Dicer 4 U·ml^−1, peptide 10–600 nM
Description: Next, RhDicer (0.5 U·μl^−1 solution; Genlantis) was diluted in buffer (20 mM Tris·HCl, pH 6.8, 100 mM NaCl, 1 mM MgCl2, 1 mM DTT, 5 mM β-mercaptoethanol, 10% glycerol, 0.1% Triton-X 100) to a concentration of 40 U·ml^−1 and then added to the peptide/RNA solutions (final RhDicer concentration: 4 U·ml^−1). The reaction solution was incubated for 150 min at 37°C, then denatured for 5 min at 70°C, and stored at 4°C. Subsequently, a 1:10 dilution in H2O of the reaction solution was performed and added to a Poly(A) Tailing and reverse transcription solution as previously reported ([62]). The samples were incubated at 42°C for 1 h before subsequent inactivation for 5 min at 95°C and cooling to 4°C. Next, qRT-PCR of each sample was performed using the primers miR21–5p–RV1 ([…]), miR21-5p-FW1 ([…]), and miRNA-RT1 ([…]) in a StepOnePlus™ real-time PCR system (Thermo Fisher Scientific). Briefly, 1 μl of template DNA solution was added to a solution of Luna® Universal Probe qPCR Master Mix (New England Biolabs) with a final primer concentration of 125 nM in 20 μl per sample. Samples were initially denatured for 5 min at 95°C followed by 45 temperature cycles of 15 s at 95°C and 30 s at 66°C. The quantification was done using miR-21-5p standard curves. To visualize the inhibitory potential of each peptide the normalized abundance of mature miR-21 (%) is plotted against the peptide concentration (nM).

[2] = tested on: yeast transfer RNAs (t-RNAs); experiment: EMSA with transfer RNA; assay type: binding, baker's yeast; conditions: fluorescein-labeled peptide 3 μM, t-RNA 9 μM
Description: Electrophoretic mobility shift assays (EMSAs) were performed using a Bio-Rad Mini-Protean gel system paired with a direct current (DC) power source (PowerPac™ HC, Bio-Rad). Typically, 6 μl solutions containing ds RNA (c = 3 μM) and fluorescein-labeled peptide (c = 6 μM) were incubated in binding buffer (10 mM Tris (pH 8.0), 0.5 mM EDTA, 12.5% glycerol and 150 mM KCl) at 4°C for 1 h. After incubation, bound RNA was resolved from peptide-free RNA using 10% non-denaturing polyacrylamide gels at 120 V in running buffer (25 mM Tris (pH 8.0), 200 mM glycine, 20 mM NaCl) at 4°C for 1 h. Visualization of fluorescent gel-bound species was conducted using a Typhoon Trio + fluorescence scanner (GE Healthcare Life Sciences). For nucleic acid visualization, gels were stained using 2 μl of SYBR™ gold nucleic acid gel dye (Molecular Probes) in 20 ml of TAE buffer (40 mM Tris, 1 mM EDTA, 20 mM acetic acid) for 45 min at RT before being visualized using a FluorChem™ gel documentation system (Alpha Innotech). To assess B3 binding to different ds RNA sequences (Supplementary Figure S20), 6 μl solutions containing hairpin RNA (c = 1 μM) and fluorescein-labeled B3 (c = 2 μM) were incubated in binding buffer (TAE and 10% glycerol) at RT for 1 h, and then resolved using 15% non-denaturing polyacrylamide gels (acrylamide/bis-acrylamide (19:1) in TAE) at 150 V in running buffer (TAE) at 4°C for 1.5 h. […]

pal-RNA duplex = experiment: ITC of N-terminally acetylated peptides with pal-RNA duplex; assay type: binding; conditions: for fold increased affinity compared to linear peptide wt33: unlabeled analogs, pal-RNA
Description: Isothermal titration calorimetry (ITC) was conducted using a MicroCal VP-ITC (Malvern Panalytical). Before measurement, oligonucleotide and peptide samples were dissolved in PBS and degassed using a ThermoVac (Malvern Panalytical) and heated to 30°C. N-terminally acetylated peptides (c = 3–12 μM) were then transferred into the sample cell and oligonucleotides (c = 12–72 μM) were transferred into the syringe. 35 Injections per measurement were performed at 30°C (8 μl injection volume, 2 s injection time, 180 s spacing, high feedback mode) with an initial delay of 60 s and a stirring speed of 307 rpm. Measurements were performed in triplicate. Using the MicroCal LLC ITC software (Origin; OriginLab Corporation), the heat associated with each injection was calculated by integrating the area under the curve in microcalories per second [μca/s] versus time [min] for each injection and then normalized to concentration. A ‘single set of identical binding sites’ model was used to fit the binding curves from which thermodynamic binding parameters (ΔG, ΔH, ΔS, N and Kd) were obtained.

endogenous miR-21 = experiment: Pull-down of miR-21 from K562 cells; assay type: cell-based, human; conditions: biotinylated peptide 10 μM, streptavidin beads, qRT-PCR, triplicate
Description: 2 × 10^6 K562 cells were incubated with N-terminally biotinylated peptides (c(peptide) = 10 μM, t = 2.5 h) for uptake on a rotating wheel at 37°C. The cells were extensively washed in PBS and lysed in lysis buffer (25 mM HEPES, pH 7.5, 150 mM NaCl, 0.05% IGEPAL CA-630, 1 mM EDTA) supplemented with 0.5 U/μl RNAse inhibitor (Superase-in, ThermoFisher). The lysate was cleared by centrifugation at 21 000 g at 4°C, an aliquot of the supernatant was removed and re-suspended in Trizol, while the remaining was incubated with streptavidin-coupled magnetic beads (Dynabeads M280, ThermoFisher) on a rotating wheel (2 h, 4°C). After magnetic separation and washing (3× in lysis buffer), the beads were re-suspended in 20 μl lysis buffer, re-suspended in Trizol (ThermoFisher), and 400 ng t-RNA was added per sample as a carrier. RNA was extracted from Trizol using the standard protocol and the qRT-PCR was performed according to a previously published protocol ([62]) using the primers h-miR21-3p-FW ([…]), h-miR21-3p-RV ([…]), h-miR21-5p-FW ([…]), h-miR21-5p-RV ([…]) in a CFX96 real-time machine (Bio-Rad). The relative enrichment was calculated as a ratio of copies in the immunoprecipitate over input normalized to the enrichment of the control peptide D1.

[3] = N-terminally acetylated peptide, PBS pH 7.4, 30°C, single set of identical binding sites model, triplicate, errors 1σ

Row | SMILES | inhibition of pre-miR-21 maturation by Dicer (in words) [1] | binding to yeast t-RNA mixture in EMSA [2] | Kd (pal-RNA duplex; [3]) | Kd (pal-RNA duplex; pal-RNA duplex) | fold increased affinity compared to linear peptide wt33 (pal-RNA duplex) | IC50 ([1]; recombinant Dicer 4 U·ml^−1, 150 min, 37°C, N-terminally acetylated peptide, qRT-PCR of miR-21, triplicate, read-out: Half-maximal Dicer inhibition) | enrichment of miR-21 relative to control peptide D1 (endogenous miR-21)
1 | CC(C)C[C@@H]1NC(=O)[C@H](CCC(=O)O)NC(=O)[C@H](CO)NC(=O)[C@@](C)(NC(=O)[C@H](CCCNC(=N)N)NC(=O)[C@H](CCC(N)=O)NC(=O)[C@H](CCC(=O)O)NC(=O)[C@H](CO)NC(=O)[C@@H]2CCCN2C(=O)[C@H](CO)NC(=O)[C@H](CCCCN)NC(=O)[C@H](Cc2c[nH]cn2)NC(=O)[C@]2(C)CCCC=CCCCCCC[C@@](C)(NC(=O)[C@H](Cc3c[nH]cn3)NC(=O)[C@H](CCCNC(=N)N)NC(=O)[C@H](CCCCN)NC(=O)[C@H](CCCNC(=N)N)NC(=O)[C@H](CCC(N)=O)NC(=O)[C@H](C)NC(=O)[C@H](CCC(N)=O)NC(=O)[C@H](CCCCN)NC(=O)[C@H](CCCCN)NC(=O)COCCOCCNC(=S)Nc3ccc4c(c3)C(=O)OC43c4ccc(O)cc4Oc4cc(O)ccc43)C(=O)N[C@@H](CC(C)C)C(=O)N[C@@H](CC(N)=O)C(=O)N[C@@H](CCCNC(=N)N)C(=O)N[C@@H](CCCCN)C(=O)N[C@@H](CCC(=O)O)C(=O)N[C@@H](CCCNC(=N)N)C(=O)N2)CCCC=CCCC[C@@](C)(C(=O)N[C@@H](Cc2c[nH]cn2)C(=O)N[C@@H](C)C(=O)N[C@@H](CCCNC(=N)N)C(N)=O)NC1=O [D1] ({FITC-AEEA}-KKQAQRKRH[R8]LNRKER[S5]HKSPSEQR[S5]SEL[S5]HAR-NH2; staple 10-17, 26-30) | showed only small effects | – | – | – | – | – | –
2 | CC(C)C[C@H](NC(=O)[C@]1(C)CCCC=CCCC[C@](C)(NC(=O)[C@H](CCC(=O)O)NC(=O)[C@H](CO)NC(=O)[C@@H]2CCCN2C(=O)[C@H](CO)NC(=O)[C@H](CCCCN)NC(=O)[C@H](Cc2c[nH]cn2)NC(=O)CNC(=O)[C@H](CCCNC(=N)N)NC(=O)[C@]2(C)CCCC=CCCC[C@](C)(NC(=O)[C@H](CCCCN)NC(=O)[C@H](Cc3c[nH]cn3)NC(=O)[C@H](CCCNC(=N)N)NC(=O)[C@H](CCCCN)NC(=O)[C@H](CCCNC(=N)N)NC(=O)[C@H](CCC(N)=O)NC(=O)[C@H](C)NC(=O)[C@H](CCC(N)=O)NC(=O)[C@H](CCCCN)NC(=O)[C@H](CCCCN)NC(=O)COCCOCCNC(=S)Nc3ccc4c(c3)C(=O)OC43c4ccc(O)cc4Oc4cc(O)ccc43)C(=O)N[C@@H](CC(N)=O)C(=O)N[C@@H](CCCNC(=N)N)C(=O)N[C@@H](CCCCN)C(=O)N2)C(=O)N[C@@H](CCCNC(=N)N)C(=O)N[C@@H](CCCNC(=N)N)C(=O)N[C@@H](CO)C(=O)N1)C(=O)N[C@@H](Cc1c[nH]c2ccccc12)C(=O)N[C@@H](Cc1c[nH]cn1)C(=O)N[C@@H](C)C(=O)N[C@@H](CCCNC(=N)N)C(N)=O [B3] ({FITC-AEEA}-KKQAQRKRHK[S5]NRK[S5]RGHKSPSE[S5]RRS[S5]LWHAR-NH2; staple 11-15, 24-28) | inhibited in a concentration-dependent manner | did not observe binding | 70 nM | 70 ± 1 nM | 17 fold | ~50 nM | 35 fold
3 | CC(C)C[C@@H]1NC(=O)[C@@](C)(NC(=O)[C@H](CO)NC(=O)[C@H](CCCNC(=N)N)NC(=O)[C@H](CCCNC(=N)N)NC(=O)[C@H](CCC(N)=O)NC(=O)[C@H](CCC(=O)O)NC(=O)[C@H](CO)NC(=O)[C@@H]2CCCN2C(=O)[C@H](CO)NC(=O)[C@H](CCCCN)NC(=O)[C@H](Cc2c[nH]cn2)NC(=O)CNC(=O)[C@H](CCCNC(=N)N)NC(=O)[C@H](CCC(=O)O)NC(=O)[C@H](CCCCN)NC(=O)[C@H](CCCNC(=N)N)NC(=O)[C@H](CC(N)=O)NC(=O)[C@]2(C)CCCC=CCCCCCC[C@@](C)(NC(=O)[C@H](CCC(N)=O)NC(=O)[C@H](CCCCN)NC(=O)[C@H](CCCCN)NC(=O)COCCOCCNC(=S)Nc3ccc4c(c3)C(=O)OC43c4ccc(O)cc4Oc4cc(O)ccc43)C(=O)N[C@@H](CCC(N)=O)C(=O)N[C@@H](CCCNC(=N)N)C(=O)N[C@@H](CCCCN)C(=O)N[C@@H](CCCNC(=N)N)C(=O)N[C@@H](Cc3c[nH]cn3)C(=O)N[C@@H](CCCCN)C(=O)N2)CCCC=CCCC[C@@](C)(C(=O)N[C@@H](CCCNC(=N)N)C(N)=O)NC(=O)[C@H](Cc2c[nH]cn2)NC(=O)[C@H](Cc2c[nH]c3ccccc23)NC1=O [C1] ({FITC-AEEA}-KKQ[R8]QRKRHK[S5]NRKERGHKSPSEQRRS[S5]LWH[S5]R-NH2; staple 4-11, 28-32) | – | did not observe binding | 180 nM | – | 7 fold | – | enrichment
